The target in this assay is T1, JNK1 (Homo sapiens, UniProt P45983).
T1 construct: purchased Carna Biosciences
As to the kind of experiment: JNK1 biochemical assays (one or more of: time resolved fluorescence, Z'-LYTE Cascade, radioactive).

Setting [1] is: one or more of the JNK1 biochemical assays, read-out: Act. Level (JNK1 IC50 activity level).
Where [2] appears, read: tested in one or more of the JNK1 biochemical assays, read-out: Act. Level (JNK1 biochemical assay IC50 activity level).
Where [3] appears, read: Table 2, JNK1 IC50 activity level, read-out: Act. Level.
The mark [4] stands for this setting: Table 3, JNK1 IC50 activity level, read-out: Act. Level.

Like-named read-outs stand apart in the source and are kept apart here. Bounds are passed on as bounds.

T1 sequence (P45983 whole entry): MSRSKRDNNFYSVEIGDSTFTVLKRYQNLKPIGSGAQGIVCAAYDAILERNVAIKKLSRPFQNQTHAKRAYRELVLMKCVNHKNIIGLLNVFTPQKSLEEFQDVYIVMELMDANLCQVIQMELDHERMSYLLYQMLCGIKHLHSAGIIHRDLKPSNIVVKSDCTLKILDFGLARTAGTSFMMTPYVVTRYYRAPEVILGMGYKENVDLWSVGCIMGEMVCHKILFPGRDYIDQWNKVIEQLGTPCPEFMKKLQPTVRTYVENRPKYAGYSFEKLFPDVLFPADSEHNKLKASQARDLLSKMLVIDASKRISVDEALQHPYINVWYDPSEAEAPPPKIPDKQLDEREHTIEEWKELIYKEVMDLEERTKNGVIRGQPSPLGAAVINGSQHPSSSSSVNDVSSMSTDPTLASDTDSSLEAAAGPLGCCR

In the case of `CCC(C)(C)Nc1nc(N[C@H]2CC[C@H](OC3CC3)CC2)ncc1C(N)=O` [Example 382, 2-((1r,4r)-4-cyclopropoxycyclohexylamino)-4-(tert-pentylamino)pyrimidine-5-carboxamide], the IC50 under setting [1] was under 200 nM. Still for that read-out and setting: the figure for `CC12CC(Nc3nc(NC45CCC(O)(CC4)C5)ncc3C(N)=O)(C1)C2` [Example 490, 2-(4-hydroxybicyclo[2.2.1]heptan-1-ylamino)-4-(3-methylbicyclo[1.1.1]pentan-1-ylamino)pyrimidine-5-carboxamide] is under 200 nM. With `CCO[C@H]1CC[C@H](Nc2ncc(C(N)=O)c(N[C@H]3CCC[C@H]3O)n2)CC1` [Example A-63, 2-((1r,4S)-4-ethoxycyclohexylamino)-4-((1S,2R)-2-hydroxycyclopentylamino)pyrimidine-5-carboxamide], under setting [2], the IC50 was in the range of 200 to 800 nM. Regarding `CC(C)(C)Nc1nc(N[C@H]2CC[C@@](C)(O)CC2)ncc1C(N)=O` [Example 371, 4-(tert-butylamino)-2-((1s,4s)-4-hydroxy-4-methylcyclohexylamino)pyrimidine-5-carboxamide], under setting [1], the IC50 was under 200 nM. As to `NC(=O)c1cnc(NC2CCOCC2)nc1N[C@@H]1CCCC[C@H](O)C1` [Example A-166, 4-((1R,3S)-3-hydroxycycloheptylamino)-2-(tetrahydro-2H-pyran-4-ylamino)pyrimidine-5-carboxamide], under setting [2], the IC50 was under 200 nM. For `CO[C@H]1CC[C@H](Nc2ncc(C(N)=O)c(NC3(CO)CCCC3)n2)CC1` [Example A-78, 4-(1-(hydroxymethyl)cyclopentylamino)-2-((1r,4r)-4-methoxycyclohexylamino)pyrimidine-5-carboxamide], the IC50 under setting [2] was under 200 nM. As to `CO[C@H]1CC[C@H](Nc2ncc(C(N)=O)c(N[C@@H](C)C3CCC3)n2)CC1` [Example 295, 4-((S)-1-cyclobutylethylamino)-2-((1r,4S)-4-methoxycyclohexylamino)pyrimidine-5-carboxamide], the IC50 under setting [1] is under 200 nM. Regarding `C[C@@H](Nc1nc(N[C@H]2CCCOC2)ncc1C(N)=O)C1CC1` [Example 422, 4-((R)-1-cyclopropylethylamino)-2-((S)-tetrahydro-2H-pyran-3-ylamino)pyrimidine-5-carboxamide], the IC50 under setting [1] was under 200 nM. With `CO[C@H]1CC[C@H](Nc2ncc(C(N)=O)c(N[C@H]3CC[C@@](C)(O)CC3)n2)CC1` [Example A-69, 4-((1s,4s)-4-hydroxy-4-methylcyclohexylamino)-2-((1r,4r)-4-methoxycyclohexylamino)pyrimidine-5-carboxamide], the IC50 under setting [2] was under 200 nM. Regarding `CC(C)CNc1nc(N[C@H]2CC[C@H](O)CC2)ncc1C(N)=O` [Example A-88, 2-((1r,4r)-4-hydroxycyclohexylamino)-4-(isobutylamino)pyrimidine-5-carboxamide], the IC50 under setting [2] was under 200 nM.

On to `CC(C)(C)Nc1ncc(C(N)=O)c(Nc2ccccc2)n1` [Example B-12, 2-(tert-butylamino)-4-(phenylamino)pyrimidine-5-carboxamide], for which the IC50 under setting [3] is under 200 nM. Take `CCO[C@H]1CC[C@H](Nc2ncc(C(N)=O)c(NC(C)(C)C)n2)CC1` [Example 211, 4-(tert-butylamino)-2-((1r,4r)-4-ethoxycyclohexylamino)pyrimidine-5-carboxamide]: under setting [1], the IC50 is under 200 nM.

For `CO[C@H]1CC[C@H](Nc2ncc(C(N)=O)c(NC3CCC3C)n2)CC1` (stereo partly drawn) [Example 254, 2-((1r,4r)-4-methoxycyclohexylamino)-4-(2-methylcyclobutylamino)pyrimidine-5-carboxamide], the IC50 under setting [1] is under 200 nM. Take `N#Cc1cnc(N[C@H]2CC[C@H](OC(F)F)CC2)nc1N[C@@H]1CCC[C@H](O)C1` [Example C-6, 2-((1r,4R)-4-(difluoromethoxy)cyclohexylamino)-4-((1R,3S)-3-hydroxycyclohexylamino) pyrimidine-5-carbonitrile]: under setting [4], the IC50 was under 200 nM. Take `NC(=O)c1cnc(NC2CCC(F)(F)CC2)nc1N[C@@H]1CCC[C@@H]1CO` [Example 241, 2-(4,4-difluorocyclohexylamino)-4-((1R,2S)-2-(hydroxymethyl)cyclopentylamino)pyrimidine-5-carboxamide]: under setting [1], the IC50 was under 200 nM. For `CCO[C@H]1CC[C@H](Nc2ncc(C#N)c(NC3CCCC3)n2)CC1` [Example C-23, 4-(cyclopentylamino)-2-((1r,4r)-4-ethoxycyclohexylamino) pyrimidine-5-carbonitrile], the IC50 under setting [4] is 200 to 800 nM. For the compound `NC(=O)c1cnc(Nc2ccc(N3CCOCC3)cc2)nc1Nc1ccccc1` [Example B-40, 2-(4-morpholinophenylamino)-4-(phenylamino)pyrimidine-5-carboxamide], the IC50 under setting [3] is under 200 nM. Turning to `CO[C@H]1CC[C@H](Nc2ncc(C(N)=O)c(N[C@@H]3CCC[C@H]3CO)n2)CC1` [Example 260, 4-((1R,2R)-2-(hydroxymethyl)cyclopentylamino)-2-((1r,4R)-4-methoxycyclohexylamino)pyrimidine-5-carboxamide], the IC50 under setting [1] is under 200 nM. Consider `CC1CCC1Nc1nc(N[C@H]2CC[C@H](O)CC2)ncc1C(N)=O` (stereo partly drawn) [Example 246, 2-((1r,4r)-4-hydroxycyclohexylamino)-4-(2-methylcyclobutylamino)pyrimidine-5-carboxamide], for which the IC50 under setting [1] is under 200 nM. `CC1CCC1Nc1nc(N[C@H]2CC[C@H](OCC(F)(F)F)CC2)ncc1C(N)=O` (stereo partly drawn) [Example 265, 4-(2-methylcyclobutylamino)-2-((1r,4r)-4-(2,2,2-trifluoroethoxy)cyclohexylamino)pyrimidine-5-carboxamide]: under setting [1], the IC50 was under 200 nM. In the case of `C[C@@H](Nc1nc(N[C@H]2CC[C@H](O)CC2)ncc1C(N)=O)C1CCC1` [Example 298, 4-((R)-1-cyclobutylethylamino)-2-((1r,4R)-4-hydroxycyclohexylamino)pyrimidine-5-carboxamide], the IC50 under setting [1] is under 200 nM. Turning to `CO[C@H]1CC[C@H](Nc2ncc(C(N)=O)c(N[C@H]3CC[C@H](CO)C3)n2)CC1` [Example A-98, 4-((1S,3S)-3-(hydroxymethyl)cyclopentylamino)-2-((1r,4S)-4-methoxycyclohexylamino)pyrimidine-5-carboxamide], the IC50 under setting [2] was under 200 nM. In the case of `N#Cc1cnc(N[C@H]2CC[C@H](O)CC2)nc1N[C@@H]1CCCC[C@H](O)C1` [Example C-36], the IC50 under setting [4] is under 200 nM.

In the case of `NC(=O)c1cnc(N[C@H]2CCCOC2)nc1NC12CC(C1)C2` [Example 405, (S)-4-(bicyclo[1.1.1]pentan-1-ylamino)-2-(tetrahydro-2H-pyran-3-ylamino)pyrimidine-5-carboxamide], the IC50 under setting [1] is under 200 nM. Take `NC(=O)c1cnc(NC2CCOCC2)nc1NC12CC(C1)C2` [Example 407, 4-(bicyclo[1.1.1]pentan-1-ylamino)-2-(tetrahydro-2H-pyran-4-ylamino)pyrimidine-5-carboxamide]: the IC50 under setting [1] was under 200 nM. On to `CCO[C@H]1CC[C@H](Nc2ncc(C(N)=O)c(NC34CCC(C3)C4)n2)CC1` [Example 462, 4-(bicyclo[2.1.1]hexan-1-ylamino)-2-((1r,4r)-4-ethoxycyclohexylamino)pyrimidine-5-carboxamide], for which the IC50 under setting [1] is under 200 nM.

For the compound `CC(C)(O)[C@H]1CC[C@@H](Nc2nc(NC3CCOCC3)ncc2C(N)=O)CC1` [Example A-111, 4-((1s,4s)-4-(2-hydroxypropan-2-yl)cyclohexylamino)-2-(tetrahydro-2H-pyran-4-ylamino)pyrimidine-5-carboxamide], the IC50 under setting [2] was under 200 nM.
